One may read the IC50 as the concentration that inhibits the measured activity by half.

In test [1] the target is T1, GnRH-R (membranes of human pituitary) (Homo sapiens, UniProt P30968).
T1 construct: Tissue samples derived by autopsy from normal human pituitary (anterior lobe); from tissue; host or cells: normal human pituitary (anterior lobe), autopsy; membrane homogenates
T1 sequence (P30968 1-328): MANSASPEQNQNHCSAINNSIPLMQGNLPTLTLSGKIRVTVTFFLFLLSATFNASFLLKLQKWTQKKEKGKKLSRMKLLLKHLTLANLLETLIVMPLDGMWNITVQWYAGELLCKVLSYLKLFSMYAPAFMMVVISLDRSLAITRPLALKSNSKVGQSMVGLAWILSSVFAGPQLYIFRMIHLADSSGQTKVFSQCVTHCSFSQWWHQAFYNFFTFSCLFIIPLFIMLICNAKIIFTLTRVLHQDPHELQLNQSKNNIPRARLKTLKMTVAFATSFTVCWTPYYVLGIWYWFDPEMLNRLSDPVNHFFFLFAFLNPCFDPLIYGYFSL
Briefly: Radioligand binding (ligand competition) assay, displacement of [125I]-[6D-Trp]-GnRH-I, human pituitary membranes. To be noted: for Inhibition of the binding of [125I]-[6D-Trp]-GnRH-I: at a concentration of 10^-6 M, tissue (human pituitary / human prostate cancer) not specified. The source says:
(§1) The binding potency of the GnRH analogs and the GnRH-PpIX conjugates to human pituitary and human prostate cancer cells, that express GnRH-R in high concentration, was investigated by ligand competition assay.
(§2) Tissue samples derived by autopsy from normal human pituitary (anterior lobe) and human prostate cancer cells were obtained from a patient at the time of initial surgical treatment. The collection and the use of these specimens for our studies are approved by the local Institutional Ethics Committee. […] The assay was performed as described earlier. […] At the end of the incubation, 125 µL aliquots of suspension were transferred onto the top of 1 mL of ice-cold binding buffer containing 1.5% BSA in microcentrifuge tubes. The tubes were centrifuged at 12,000× g for 3 min at 4 °C. Supernatants were aspirated and the pellet was counted in a gamma counter. Protein concentration was determined by the method of Bradford, using a Bio-Rad protein assay kit (Bio-Rad Laboratories, Hercules, CA, USA). The LIGAND-PC computerized curve-fitting program of Munson and Rodbard was used to determine the receptor binding characteristics and IC50 values.
A general note: In a radioligand displacement assay an active substance lowers the binding of a labelled ligand.

Test [2] relates to Detroit-562 human pharyngeal carcinoma cells. Kind of test: cells. The settings on record: for Effect of incubation time on cell viability inhibition: incubation 1, 3 or 5 h. How it is done:
(compound 5) was used for the optimization of the conditions of the cell viability inhibition assays. First, the irradiation time was optimized. Detroit-562 pharyngeal cells were treated with the peptide-PpIX conjugate for 5 h, the unbound conjugate was washed out, and then the cells were irradiated for 0, 2, 10, or 30 min followed by 72 h of further incubation (Figure 6A).
Afterwards, the incubation time was optimized.
The cell viability inhibition of the synthesized GnRH-PpIX conjugates was measured on Detroit-562 cells using the previously optimized conditions (5 h treatment, 10 min irradiation).
Cells were seeded to 96-well plates (6·× 10^3 cells/well) 48 h prior to the treatment. The cells were treated with the peptides (10 μM) and conjugates (0.025–10 μM) in darkness. Stock solutions of the compounds were prepared in DMSO (5 mM) and all dilutions were made to contain 0.2% DMSO final concentration. The control wells were treated with medium or 0.2% DMSO containing medium. After 1, 3, or 5 h, the cells were washed once with medium, irradiated for 0, 2, 10, or 30 min and incubated for a further 72 h. The irradiation was performed by an Oriel type 250 W Quartz Tungsten Halogen lamp (Newport Corporation, CA, USA) with a 550 nm emission maximum. The light was filtered to exclude UV and IR components. The fluence rate was determined by a 10 A-P Nova laser power/energy monitor (Ophir, Optronix, Jerusalem, Israel) using the pyro-electric detector. Then, the MTT-test was performed according to the manufacturer’s instructions. Each point was measured using 3 parallels and each experiment was repeated twice.

The target in test [3] is T2, GnRH-R (membranes of human prostate cancer cells) (Homo sapiens, UniProt P30968).
T2 construct: human prostate cancer cells were obtained from a patient at the time of initial surgical treatment; from tissue; host or cells: human prostate cancer specimen from a patient at surgery; membrane homogenates
T2 sequence (P30968 1-328): T1 sequence (P30968 1-328)
Kind of test: Radioligand binding (ligand competition) assay, displacement of [125I]-[6D-Trp]-GnRH-I, human prostate cancer membranes.
Excerpt: as §1, §2

Where [4] appears, read: Detroit-562, 10 min irradiation.
[5] abbreviates: membranes of human pituitary, read-out: IC50 Values, inhibition of [125I]-[6D-Trp]-GnRH-I binding, Human Pituitary.
[6] abbreviates: membranes of human prostate cancer cells, read-out: IC50 Values, inhibition of [125I]-[6D-Trp]-GnRH-I binding, Human Prostate Cancer.
Where [7] appears, read: Detroit-562, 0.1 µM, 5 h treatment, 10 min irradiation.

Where two headings read alike, the source gives them in different places. Square brackets hold non-standard residues; d marks the D form. Peptide text beside a SMILES is read from it. * marks the point of attachment. X1 = C=CC1=C(C)c2cc3[nH]c(cc4nc(cc5[nH]c(cc1n2)c(C)c5CCC(=O)O)C(CCC(=O)*)=C4C)c(C)c3C=C; pGlu = O=C1CC[C@@H](C(=O)O)N1; Butyryl = CCCC(=O)* Bounds are passed on as bounds.

In the case of `C=CC1=C(C)c2cc3[nH]c(cc4nc(cc5[nH]c(cc1n2)c(C)c5CCC(=O)O)C(CCC(=O)O)=C4C)c(C)c3C=C` [PpIX, Protoporphyrin IX, reference compound], the “Inhibition of the binding of [125I]-[6D-Trp]-GnRH-I” value (“Inhibition … [125I]-[6D-Trp]-GnRH-I” for short) in test [1] was “did not inhibit”. Moreover, the Cell viability inhibition in test [2] (Detroit-562, 0.25 µM, 5 h treatment, 10 min irradiation) was ~ 50%. Further, the “Effect of incubation time on cell viability inhibition” value in test [2] (setting [4]) is given as “no significant difference”. In addition, the IC50 in test [2] (Homo sapiens, Detroit 562, light or radiation study, read-out: Calculated IC50 values, cell viability inhibition) was 209 ± 120 nM.
Turning to `CCCC(=O)NCCCC[C@H](NC(=O)[C@H](Cc1c[nH]c2ccccc12)NC(=O)[C@H](Cc1c[nH]cn1)NC(=O)[C@@H]1CCC(=O)N1)C(=O)N[C@@H](Cc1ccc(O)cc1)C(=O)N[C@H](CCCCN)C(=O)N[C@@H](CC(C)C)C(=O)N[C@@H](CCCNC(=N)N)C(=O)N1CCC[C@H]1C(=O)NCC(N)=O` [compound 2, GnRH-I[^4Lys(Bu), ^6D-Lys]] ([pGlu]HWK(Butyryl)Y[dK]LRPG-NH2), the IC50 in test [1] (setting [5]) is 9.7 ± 1.07 nM; in test [3] (setting [6]) it was 8.61 ± 1.08 nM.
As to `CCCC(=O)NCCCC[C@H](NC(=O)[C@H](Cc1c[nH]c2ccccc12)NC(=O)[C@H](Cc1c[nH]cn1)NC(=O)[C@@H]1CCC(=O)N1)C(=O)N[C@@H](Cc1c[nH]cn1)C(=O)N[C@H](CCCCN)C(=O)N[C@@H](Cc1c[nH]c2ccccc12)C(=O)N[C@@H](Cc1ccc(O)cc1)C(=O)N1CCC[C@H]1C(=O)NCC(N)=O` [compound 3, GnRH-II[^4Lys(Bu), ^6D-Lys]] ([pGlu]HWK(Butyryl)H[dK]WYPG-NH2), the values for the IC50 in test [1] (setting [5]) and in test [3] (setting [6]) were 5.56 ± 1.07 nM and 4.65 ± 0.31 nM, respectively.
`CCCC(=O)NCCCC[C@H](NC(=O)[C@H](Cc1c[nH]c2ccccc12)NC(=O)[C@H](Cc1c[nH]cn1)NC(=O)[C@@H]1CCC(=O)N1)C(=O)N[C@@H](Cc1c[nH]cn1)C(=O)N[C@@H](CC(=O)OC)C(=O)N[C@@H](Cc1c[nH]c2ccccc12)C(=O)N[C@@H](CCCCN)C(=O)N1CCC[C@H]1C(=O)NCC(N)=O` [compound 4, GnRH-III[^4Lys(Bu), ^6Asp(OMe)]]: the IC50 in test [1] (setting [5]) stood at 7.27 ± 0.92 nM; in test [3] (setting [6]), 6.56 ± 1.11 nM.
Regarding `C=CC1=C(C)c2cc3[nH]c(cc4nc(cc5[nH]c(cc1n2)c(C)c5CCC(=O)O)C(CCC(=O)NCCCC[C@@H](NC(=O)[C@H](Cc1ccc(O)cc1)NC(=O)[C@H](CO)NC(=O)[C@H](Cc1c[nH]c2ccccc12)NC(=O)[C@H](Cc1c[nH]cn1)NC(=O)[C@@H]1CCC(=O)N1)C(=O)N[C@@H](CC(C)C)C(=O)N[C@@H](CCCNC(=N)N)C(=O)N1CCC[C@H]1C(=O)NCC(N)=O)=C4C)c(C)c3C=C` [compound 5, GnRH-I[^6D-Lys(PpIX)]], the IC50 in test [1] (setting [5]) was found to be 36.3 ± 3.17 nM; in test [3] (setting [6]), 42.7 ± 7.04 nM; in test [2] (5 h) it was 62.3 ± 5.9 nM. Besides, the Cell viability inhibition in test [2] (setting [7]) was above 90%; in test [2] (Detroit-562, 5 h treatment, 2 min irradiation, sub-micromolar concentration), 50%. The “Cell viability inhibition (irradiation time optimization)” value is recorded as ~ 98% in test [2] (setting [7]) and ~ 98% in test [2] (Detroit-562, 0.1 µM, 5 h treatment, 30 min irradiation). Further, the “Toxicity in the absence of light” value in test [2] (Detroit-562, 5 h treatment, 0 min irradiation, 72 h further incubation) was “non-toxic”. In addition, in test [2] (setting [4]), the “Effect of incubation time on cell viability inhibition” value is on record as “higher activity”.
For the compound `C=CC1=C(C)c2cc3[nH]c(cc4nc(cc5[nH]c(cc1n2)c(C)c5CCC(=O)O)C(CCC(=O)NCCCC[C@@H](NC(=O)[C@H](Cc1ccc(O)cc1)NC(=O)[C@H](CCCCNC(=O)CCC)NC(=O)[C@H](Cc1c[nH]c2ccccc12)NC(=O)[C@H](Cc1c[nH]cn1)NC(=O)[C@@H]1CCC(=O)N1)C(=O)N[C@@H](CC(C)C)C(=O)N[C@@H](CCCNC(=N)N)C(=O)N1CCC[C@H]1C(=O)NCC(N)=O)=C4C)c(C)c3C=C` [compound 6, GnRH-I[^4Lys(Bu), ^6D-Lys(PpIX)]] ([pGlu]HWK(Butyryl)Y[dK](X1)LRPG-NH2), the IC50 in test [1] (setting [5]) turned out to be 42.3 ± 4.27 nM; in test [3] (setting [6]) it was 41.8 ± 5.74 nM; in test [2] (5 h) it was 89.8 ± 19.4 nM. For the same compound, in test [2] (setting [7]), the Cell viability inhibition is reported as 65–70%.
Take `C=CC1=C(C)c2cc3[nH]c(cc4nc(cc5[nH]c(cc1n2)c(C)c5CCC(=O)O)C(CCC(=O)NCCCC[C@@H](NC(=O)[C@H](Cc1c[nH]cn1)NC(=O)[C@H](CCCCNC(=O)CCC)NC(=O)[C@H](Cc1c[nH]c2ccccc12)NC(=O)[C@H](Cc1c[nH]cn1)NC(=O)[C@@H]1CCC(=O)N1)C(=O)N[C@@H](Cc1c[nH]c2ccccc12)C(=O)N[C@@H](Cc1ccc(O)cc1)C(=O)N1CCC[C@H]1C(=O)NCC(N)=O)=C4C)c(C)c3C=C` [compound 7, GnRH-II[^4Lys(Bu), ^6D-Lys(PpIX)]] ([pGlu]HWK(Butyryl)H[dK](X1)WYPG-NH2): the values for the IC50 in test [1] (setting [5]), in test [3] (setting [6]) and in test [2] (5 h) were 79.4 ± 8.88 nM, 84.5 ± 10.3 nM and 71.1 ± 6.2 nM, respectively. In test [2] (setting [7]), this compound returned a Cell viability inhibition above 90%.
Regarding `C=CC1=C(C)c2cc3[nH]c(cc4nc(cc5[nH]c(cc1n2)c(C)c5CCC(=O)O)C(CCC(=O)NCCCC[C@H](NC(=O)[C@H](Cc1c[nH]c2ccccc12)NC(=O)[C@H](CC(=O)OC)NC(=O)[C@H](Cc1c[nH]cn1)NC(=O)[C@H](CCCCNC(=O)CCC)NC(=O)[C@H](Cc1c[nH]c2ccccc12)NC(=O)[C@H](Cc1c[nH]cn1)NC(=O)[C@@H]1CCC(=O)N1)C(=O)N1CCC[C@H]1C(=O)NCC(N)=O)=C4C)c(C)c3C=C` [compound 8, GnRH-III[^4Lys(Bu), ^6Asp(OMe), ^8Lys(PpIX)]], the IC50 is 289 ± 17.3 nM in test [1]; 341 ± 21.1 nM in test [3]; 81.8 ± 12.6 nM in test [2] (read-out: Calculated IC50 values, cell viability inhibition, Detroit-562 cells, 5 h incubation, 10 min irradiation, further 72 h, MTT). Besides, the Cell viability inhibition in test [2] (setting [7]) is 65–70%.
Take “EGF: peptide used as binding specificity control [reference compound]”: in test [1], the “Inhibition … [125I]-[6D-Trp]-GnRH-I” value is “did not inhibit”.
On to “IGF-I: peptide used as binding specificity control [reference compound]”, for which, in test [1], the “Inhibition … [125I]-[6D-Trp]-GnRH-I” value was “did not inhibit”.
As to “VIP: peptide used as binding specificity control [reference compound]”, the “Inhibition … [125I]-[6D-Trp]-GnRH-I” value in test [1] is recorded as “did not inhibit”.
In the case of “glucagon: peptide used as binding specificity control [reference compound]”, in test [1], the “Inhibition … [125I]-[6D-Trp]-GnRH-I” value was “did not inhibit”.
The same measure, in the same setting: to “hGHRH: peptide used as binding specificity control [reference compound]” belongs “did not inhibit”; to “somatostatin-14: peptide structurally and/or functionally unrelated to GnRH, binding specificity control [reference compound]”, “did not inhibit”.

(Values after PMC6829278, “Suitability of GnRH Receptors for Targeted Photodynamic Therapy in Head and Neck Cancers” (International Journal of Molecular Sciences, 2019).)
